Test results published in patent US20250177359A1, “COMPOUNDS FOR USE IN THE TREATMENT OF CANCER AND INFLAMMATORY CONDITIONS” (priority 2022, published 2025).
Where two headings read alike, the source gives them in different places.

Experiments:
PARP2 = molecular target: T1, PARP2 (Homo sapiens, UniProt Q9UGN5); assay: biochemical; type: biochemical
T1 construct: made in house
Method: (§1) All starting materials, reagents, and solvents were purchased from common commercial suppliers and were used as such without further purification. […] Organic solutions were dried over anhydrous Na2SO4 and concentrated with rotary evaporator at low pressure. All the reactions were routinely checked by thin-layer chromatography (TLC) on silica gel 60F254 (Merck) and visualized by using UV and iodine. Flash chromatography separations were carried out on Merck silica gel 60 (mesh 230-400) or by using automated Buchi Reveleris X2-UV with column FP Ecoflex Si 12 g. Yields were of purified products and were not optimized. ^1HNMR spectra were recorded at 400 MHz (Bruker Avance DRX-400), while ^13CNMR spectra were recorded at 101 MHz (Bruker Avance DRX-400). Chemical shifts are given in ppm (δ) relative to TMS. […] Mating constant (J) are reported in Hz. The purity of the tested compounds was evaluated by HPLC analysis using Jasco LC-4000 instrument equipped with a UV-Visible Diode Array Jasco-MD4015 (Jasco Corporation, Tokyo, Japan), and XTerra MS C18 column, 5 μm×4.6 mm×150 mm (Waters Corporation, Massachusetts, USA). Chromatograms were analyzed by ChromNAV2.0 Chromatography Data System software. […] The peak retention time (ret. time) is given in minutes. […] 1-Isobutoxy-4-methoxy-2-nitrobenzene (113). Isobutyl alcohol (0.6 mL, 6.43 mmol) was added, under nitrogen atmosphere at 0° C., to a suspension of NaH (0.26 g, 6.43 mmol) in dry DMF. After 15 minutes, 1-fluoro-4-methoxy-2-nitrobenzene 112 (1 g, 5.84 mmol) was also added and the reaction mixture was stirred at 80° C. for 4 h. […] (2-Isobutoxy-5-methoxyphenyl)amine (114). Zn (1.57 g, 24 mmol) and NH4C1 (2.45 g, 40 mmol) were added to a solution of 113 (0.46 g, 2 mmol) in acetone/H2O (50 mL, ratio 5:1). The reaction mixture was stirred at 60° C. for 3 h and, then, it was filtered over celite. […] N-(2,5-diethoxyphenyl)thiourea (55). […] N-(2-isobutoxy-5-methoxyphenyl)thiourea (115). […] A solution of Br2 (0.2 mL, 3.3 mmol) in CHCl3 (5 mL) was slowly added to a suspension of 45 (0.6 g, 3.3 mmol) in CHCl3 (13 mL), at 0° C. The reaction mixture was stirred at r.t. for 4 h and, then, a 10% solution of Na2SO3 in water was added to the mixture. […] 4,7-Diethoxy-1,3-benzothiazol-2-amine (66). […] 4-Isobutoxy-7-methoxy-1,3-benzothiazol-2-amine (116). […] Hydrazine hydrate (0.23 mL, 4.77 mmol) and CH3COOH (0.12 mL, 2.1 mmol) were added to a suspension of 56 (0.29 g, 1.59 mmol) in ethylene glycol (8 mL), and the reaction mixture was stirred for 24 h at 125° C. […] 6-Ethyl-2-hydrazino-1,3-benzothiazole (69). […] 6-Ispropyl-2-hydrazino-1,3-benzothiazole (70). […] 2-Hydrazino-4,7-dimethoxy-1,3-benzothiazole (73). […] 2-Hydrazino-5,7-dimethoxy-1,3-benzothiazole (75). […] 2-Hydrazino-4,7-Diethoxy-1,3-benzothiazole (77). […] 2-Hydrazino-5-methyl[1,3]thiazolo[5,4-b]pyridine (100). […] A solution of 67 (0.13 g, 0.65 mmol) in formic acid (5 mL) was refluxed for 10 h. The reaction mixture was then poured into ice/water and the pH was neutralized using a saturated solution of NaHCO3.

TNKS2 = molecular target: T2, TNKS2 (Homo sapiens, UniProt Q9H2K2); assay: biochemical
T2 sequence (Q9H2K2 1-1166): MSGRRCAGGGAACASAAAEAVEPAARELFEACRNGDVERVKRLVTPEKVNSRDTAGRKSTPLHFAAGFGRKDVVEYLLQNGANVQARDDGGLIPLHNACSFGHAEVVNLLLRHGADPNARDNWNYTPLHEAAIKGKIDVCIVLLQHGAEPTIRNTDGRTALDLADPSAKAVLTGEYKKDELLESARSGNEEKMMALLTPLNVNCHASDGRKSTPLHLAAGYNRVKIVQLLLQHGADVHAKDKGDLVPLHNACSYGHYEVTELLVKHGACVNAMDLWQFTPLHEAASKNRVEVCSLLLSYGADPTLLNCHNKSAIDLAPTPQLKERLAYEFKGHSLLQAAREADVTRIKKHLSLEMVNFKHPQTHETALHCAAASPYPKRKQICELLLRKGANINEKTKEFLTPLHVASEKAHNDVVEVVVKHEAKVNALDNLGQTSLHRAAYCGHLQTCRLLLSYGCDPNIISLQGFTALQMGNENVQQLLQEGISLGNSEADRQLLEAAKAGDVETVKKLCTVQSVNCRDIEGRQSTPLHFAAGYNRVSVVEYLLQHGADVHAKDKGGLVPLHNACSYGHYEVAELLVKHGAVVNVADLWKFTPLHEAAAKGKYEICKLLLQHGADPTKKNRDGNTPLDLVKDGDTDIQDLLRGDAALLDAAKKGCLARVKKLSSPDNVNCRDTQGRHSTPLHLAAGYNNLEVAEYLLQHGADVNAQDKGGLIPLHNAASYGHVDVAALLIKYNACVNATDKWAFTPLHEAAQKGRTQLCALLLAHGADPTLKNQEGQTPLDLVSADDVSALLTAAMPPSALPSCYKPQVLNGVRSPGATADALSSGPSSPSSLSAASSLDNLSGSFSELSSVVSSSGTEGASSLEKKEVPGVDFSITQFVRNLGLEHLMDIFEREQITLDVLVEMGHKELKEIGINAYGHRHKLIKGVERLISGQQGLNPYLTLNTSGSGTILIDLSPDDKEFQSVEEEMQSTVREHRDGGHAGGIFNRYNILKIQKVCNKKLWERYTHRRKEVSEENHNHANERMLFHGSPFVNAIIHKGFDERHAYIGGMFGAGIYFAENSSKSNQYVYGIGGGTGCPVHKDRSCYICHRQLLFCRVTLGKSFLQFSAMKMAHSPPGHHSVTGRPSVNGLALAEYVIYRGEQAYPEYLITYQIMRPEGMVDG
Method: as §1

[1] = read-out: TNKS2 IC50, NAD+ consumption assay, > less than 50% inhibition at highest concentration, >> no inhibition
[2] = NAD+ consumption assay, > less than 50% inhibition at highest concentration, >> no inhibition

T1 sequence (Q9UGN5 whole entry): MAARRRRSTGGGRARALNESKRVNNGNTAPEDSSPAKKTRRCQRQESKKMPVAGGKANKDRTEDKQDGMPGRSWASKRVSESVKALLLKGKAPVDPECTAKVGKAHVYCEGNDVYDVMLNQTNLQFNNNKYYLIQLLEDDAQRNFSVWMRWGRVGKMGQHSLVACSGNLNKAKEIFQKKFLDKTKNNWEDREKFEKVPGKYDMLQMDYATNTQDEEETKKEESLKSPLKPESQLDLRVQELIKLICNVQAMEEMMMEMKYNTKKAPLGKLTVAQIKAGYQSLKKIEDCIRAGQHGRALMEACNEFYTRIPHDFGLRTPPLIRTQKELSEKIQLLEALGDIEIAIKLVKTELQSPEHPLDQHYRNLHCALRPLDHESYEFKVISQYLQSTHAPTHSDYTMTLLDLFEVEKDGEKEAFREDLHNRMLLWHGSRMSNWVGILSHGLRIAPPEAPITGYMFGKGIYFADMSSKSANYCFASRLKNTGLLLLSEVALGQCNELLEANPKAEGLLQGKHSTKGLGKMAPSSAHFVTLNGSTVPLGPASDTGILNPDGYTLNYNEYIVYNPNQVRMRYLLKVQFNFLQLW

Question: What does the source list for `COc1cccc2c1sc1nncn12` [Compound 14, 8-Methoxy[1,2,4]triazolo[3,4-b][1,3]benzothiazole]?
Answer: IC50 (PARP2): > 10 µM; IC50 (TNKS2; [1]): 24 µM

Question: For `COc1cccc2sc3nncn3c12` [Compound 15, 5-Methoxy[1,2,4]triazolo[3,4-b][1,3]benzothiazole], which IC50 (TNKS2; [1]) is on record?
Answer: 1 µM

Question: How did the IC50 (PARP2; [2]) turn out when `CSc1nnc2sc3cc(C)ccc3n12` [Compound 21, 7-Methyl-3-(methylthio)[1,2,4]triazolo[3,4-b][1,3]benzothiazole] was run?
Answer: 12 µM

Question: What about the IC50 (TNKS2) of the same compound?
Answer: > 100 µM

Question: What does the source list for `Cc1ccc2c(c1)sc1nnc(SCc3ccc(Cl)cc3)n12` [Compound 23, 3-[(4-Chlorobenzyl)thio]-7-methyl[1,2,4]triazolo[3,4-b][1,3]benzothiazole]?
Answer: IC50 (PARP2): > 100 µM; IC50 (TNKS2): > 100 µM

Question: Which results are given for `Cc1cc(C)c2c(c1)sc1nncn12` [Compound 2]?
Answer: IC50 (PARP2; [2]): 1.3 µM; IC50 (TNKS2; [1]): 1.2 µM

Question: `CCc1ccc2c(c1)sc1nncn12` [Compound 7, 7-Ethyl[1,2,4]triazolo[3,4-b][1,3]benzothiazole] was tested. Which IC50 (PARP2; [2]) did it give?
Answer: 3.9 µM

Question: What about the IC50 (TNKS2; [1]) of the same compound?
Answer: 5.3 µM

Question: For `COc1ccc2c(c1)sc1nncn12` [Compound 12], which IC50 (PARP2; [2]) is on record?
Answer: 8.8 µM

Question: What about the IC50 (TNKS2; [1]) of the same compound?
Answer: 5.5 µM

Question: What does the source list for `COc1ccc(OC)c2c1sc1n[nH]c(=S)n12` [Compound 26, 5,8-Dimethoxy[1,2,4]triazolo[3,4-b][1,3]benzothiazole-3(2H)-thione]?
Answer: IC50 (PARP2; [2]): 19 µM; IC50 (TNKS2; [1]): 66 µM

Question: What does the source list for `COc1cc(OC)c2sc3nncn3c2c1` [Compound 16, 6,8-Dimethoxy[1,2,4]triazolo[3,4-b][1,3]benzothiazole]?
Answer: IC50 (PARP2; [2]): 20 µM; IC50 (TNKS2; [1]): 7.6 µM

Question: With `COc1ccc(OC)c2c1sc1nncn12` [Compound 13, 5,8-Dimethoxy[1,2,4]triazolo[3,4-b][1,3]benzothiazole] as the compound, how does the IC50 (PARP2; [2]) read?
Answer: 9.2 µM

Question: And the IC50 (TNKS2; [1])?
Answer: 4 µM

Question: For `Cc1ccc2c(c1)sc1nnc(NCc3ccc(Cl)cc3)n12` [Compound 24, N-(4-chlorobenzyl)-7-methyl[1,2,4]triazolo[3,4-b][1,3]benzothiazol-3-amine], which IC50 (PARP2; [2]) is on record?
Answer: 70 µM

Question: And the IC50 (TNKS2)?
Answer: > 100 µM

Question: How did the IC50 (PARP2) turn out when `c1ccc2c(c1)sc1nncn12` [Compound 3] was run?
Answer: 5.3 µM

Question: What about the IC50 (TNKS2; [1]) of the same compound?
Answer: 2.5 µM

Question: How did the IC50 (PARP2; [2]) turn out when `Cc1ccc2c(c1)sc1nnc(/N=C\c3ccc(Cl)cc3)n12` [Compound 25, N-[(1Z)-(4-chlorophenyl)methylene]-7-methyl[1,2,4]triazolo[3,4-b][1,3]benzothiazol-3-amine] was run?
Answer: 2.9 µM

Question: And the IC50 (TNKS2)?
Answer: > 100 µM

Question: For `COc1ccc2sc3nncn3c2c1` [Compound 11, 6-Methoxy[1,2,4]triazolo[3,4-b][1,3]benzothiazole], which IC50 (PARP2; [2]) is on record?
Answer: 4.7 µM

Question: What about the IC50 (TNKS2; [1]) of the same compound?
Answer: 1 µM

Question: What does the source list for `Cc1cccc2c1sc1nncn12` [Compound 6, 8-Methyl[1,2,4]triazolo[3,4-b][1,3]benzothiazole]?
Answer: IC50 (PARP2; [2]): 8.3 µM; IC50 (TNKS2; [1]): 3.8 µM

Question: With `Oc1cccc2c1sc1nncn12` [Compound 18, [1,2,4]Triazolo[3,4-b][1,3]benzothiazol-8-ol] as the compound, how does the IC50 (PARP2; [2]) read?
Answer: 29 µM

Question: And the IC50 (TNKS2; [1])?
Answer: 17 µM

Question: Which IC50 (PARP2; [2]) does the source give for `Clc1ccc2c(c1)sc1nncn12` [Compound 9] here?
Answer: 2.4 µM

Question: And the IC50 (TNKS2; [1])?
Answer: 10 µM

Question: For `CC(C)c1ccc2c(c1)sc1nncn12` [Compound 8, 7-Isopropyl[1,2,4]triazolo[3,4-b][1,3]benzothiazole], which IC50 (PARP2; [2]) is on record?
Answer: 4.5 µM

Question: And the IC50 (TNKS2; [1])?
Answer: 9.5 µM

Question: Which IC50 (TNKS2; [1]) does the source give for `Cc1ccc(F)c2c1sc1nncn12` [Compound 4, 5-Fluoro-8-methyl[1,2,4]triazolo[3,4-b][1,3]benzothiazole] here?
Answer: 5.4 µM

Question: Which IC50 (PARP2; [2]) does the source give for `COc1ccc(OC)c2c1sc1nnc(NC(C)=O)n12` [Compound 31, N-(5,8-dimethoxy[1,2,4]triazolo[3,4-b][1,3]benzothiazol-3-yl)acetamide] here?
Answer: 97 µM

Question: With `COc1ccc(OC)c2c1sc1nnc(NC(=O)C(C)(C)C)n12` [Compound 30, N-(5,8-dimethoxy[1,2,4]triazolo[3,4-b][1,3]benzothiazol-3-yl)-2,2-dimethylpropanamide] as the compound, how does the IC50 (PARP2; [2]) read?
Answer: 53 µM

Question: Which IC50 (PARP2; [2]) does the source give for `Cc1ccc2sc3nncn3c2c1` [Compound 5, 6-Methyl[1,2,4]triazolo[3,4-b][1,3]benzothiazole] here?
Answer: 1.5 µM

Question: What about the “TNKS2 pIC50 ± SEM” value (TNKS2; experiment repeated three times) of the same compound?
Answer: (6.02 ± 0.13)

Question: Which IC50 (PARP2; [2]) does the source give for `Cc1ccc2c(c1)sc1nncn12` [Compound 1] here?
Answer: 4 µM

Question: And the IC50 (TNKS2; [1])?
Answer: 5.3 µM
